According to patent publication US20250312440A1, “CHEMICAL SCREEN OF MODULATORS FOR VACCINE ADJUVANTS” (THE UNIVERSITY OF CHICAGO, priority 2022, published 2025):

Assays:
human THP-1 monocytes = assay: Cytokine level screening in THP-1 cells (AlphaLISA/AlphaPlex, modulator + agonist); assay type: cell-based
Experimental: THP-1 cells were seeded at 50,000 cells per well in 45 μL of biotin-free RPMI+5% HI-FBS in clear 384 well plates. Following 24h incubation, 50 nL of 10 mM modulator libraries were added by Janus G3 via pintool to experimental wells (cols 3-22) for a final concentration of 10 μM. After 1 hour, 5 μL of agonist was added via a MultiDrop Combi liquid handler (col 3-23). The following day, 5 μL of supernatant was transferred to white low volume ProxiPlates. 10 μL of a prepared acceptor bead (10 μg/mL final conc), biotinylated antibody (1 nM final conc) mixture was added via liquid handler to the cell supernatant. After 1 hr incubation at RT, 5 μL of donor beads (40 μg/mL final conc) were added in the dark. After an additional 1 hr incubation, plates were read on a plate reader with AlphaPlex filters for europium (615 nm) and terbium (545 nm) emission. A separate plate was run each day containing a standard curve of known analyte for interpolation purposes.
Cytokines and chemokines are a broad category of secreted proteins important for adjuvants in regulating adaptive immunity (23). However, excessive production of cytokines by adjuvants can result in direct tissue damage and are correlated with vaccine tolerability (24, 25). To validate the findings of the primary screening results and to explore the impact on downstream immune outcomes, the inventors measured levels of six cytokines and chemokines involved in inflammation and adaptive responses (IL-12p40, IP-10, IL-1b, CCL4, TNF-α, and IFN-b, Table 4). The inventors measured cytokine expression through AlphaLISA, an assay well-suited to high throughput due to its large dynamic range, in situ measurement, and broad range of cytokines. It has been previously used to investigate small molecule biological inhibitors (26-28).
Cell supernatants were collected and cytokines were measured in three duplex measurements (FIG. 11A). Similarly, the inventors optimized standard curve ranges, crosstalk correction factors, incubation times and other factors of the secondary screen (FIGS. 11B-11D). As in the inventors' primary screen, modulators enhance or inhibit cytokine production among all six cytokines and for each agonist independently (FIGS. 4A-4G, FIG. 11E). The distributions within cytokines vary based on the dynamic range and Z-factor obtained for each cytokine and agonist studied (Table 5). High throughput screening utilizes Z-factors as a proxy for statistical reliability of an assay, due to the dynamic range of the positive controls and the inherent cytokines secreted for each agonist, a Z-factor score greater than zero was not obtained for certain agonists/[…] combinations. Since each agonist produced differing levels of cytokine that were sometimes at the limits of standard curve, amending this assay to a high throughout nature was challenging. […] Since the inventors measured fold-change and reduce dimensionality further in analysis, this approach was adequate to compare compounds within the inventors' dataset for down-selection.
After considering categorical and ranked scoring systems, the inventors decided the best representation of modulator performance would need to preserve cytokine changes but do so by normalizing for each cytokine's and agonist's dynamic range (37). Because of the differences in dynamic range of all the inventors' six cytokines, the inventors sought to normalize the data to ensure no distribution would bias the inventors' results. Thus, the inventors transformed each cytokine's distributions to a range from −1 to 1 (FIG. 5A). Unlike the previous screen, the inventors considered increases and decreases in cytokine responses separately when selecting molecules for vaccination studies. In the vaccine score, a promising candidate would need to produce minimal pro-inflammatory cytokines while increasing IFN-b and chemokine production (24, 25). Additionally, the inventors might prioritize the importance of one cytokine's modulation over another. […]

IL-6 and TNF-α = details: with CPG adjuvant; cited from earlier work
TNF-α = assay: Plasma cytokine analysis 1 hr after OVA vaccination with agonist + modulator; assay type: in vivo, mice; details: 1 hr after vaccination, CpG 50 μg + modulator 1.5 μmol
Experimental: All animal procedures were performed under a protocol approved by the University of Chicago Institutional Animal Care and Use Committee (IACUC). 6-to-8-week-old C57/B6 female mice were purchased from the Jackson laboratory. All vaccinations were administered intramuscularly in the hind leg. Blood was collected from the submandibular vein at time points indicated.
Mice were lightly anesthetized with isoflurane and injected intramuscularly in the hind leg with an injection volume of 50 μL containing antigen, adjuvant, and a DMSO/AddaVax combination. Antigen dose was as follows: OVA (100 μg)). Agonists doses were as follows: Flagellin, 10 μg; R848, 50 μg; CpG, 50 μg. Modulators were added at 1.5 μmol.
Blood was collected from mice at specified time points in 0.2 mL of heparin-coated collection tubes (VWR Scientific). […] Plasma was analyzed using Bio-Legend's LegendPlex™ Mouse Inflammation Cytokine Panel (13-Plex) according to the manufacturer's protocol. Samples were analyzed using an ACEA NovoCyte Flow Cytometer. Data were analyzed using LEGENDplex™ Data Analysis Software Suite and GraphPad Prism.
The inventors used the vaccine score to select modulators to test in a murine in vivo model. […] The inventors monitored inflammatory cytokine levels one hour following initial injections and monitored antigen specific antibody levels at the indicated timepoints post-boost (FIG. 6A). […]

[1] = THP-1, 10 μM modulator, across agonists
[2] = THP-1, 10 μM modulator, across receptors studied

Cc1ccc(NC(=O)c2ccc(CN3CC[C@H](N(C)C)C3)c(C(F)(F)F)c2)cc1Nc1nccc(-c2cncnc2)n1 [Bafetinib]
difference in enhancement of IP-10 and IFN-b between agonists (human THP-1 monocytes; Pam3, Pam2 vs cGAMP): ~2 orders of magnitude

CS[C@@]1(C(=O)Nc2ccc3[nH]nc(-c4ccc(OC(C)C)nc4)c3c2)CCN(CC(=O)N2CC=C(c3ccc(-c4ncn(C)n4)cc3)CC2)C1 [MK-8353]
IFN-b production, modulator+agonist vs agonist alone (human THP-1 monocytes; [1]): ablates | IL-12 production, modulator+agonist vs agonist alone (human THP-1 monocytes; [1]): ablates | IP-10 production, modulator+agonist vs agonist alone (human THP-1 monocytes; [1]): ablates | IL-1b enhancement (human THP-1 monocytes; [2]): up to 100 fold | TNF-α enhancement (human THP-1 monocytes; [2]): up to 100 fold

CN(C)c1ccc2c(c1)Sc1cc(N(C)C)ccc1N2.CS(=O)(=O)O.CS(=O)(=O)O [TRx0237(LMTX) mesylate]
IFN-b production, modulator+agonist vs agonist alone (human THP-1 monocytes; [1]): enhance IFN-b secretion across all agonists studied | TNF-α enhancement using cGAMP (human THP-1 monocytes; THP-1, 10 μM modulator, cGAMP): up to 36 fold

COc1cc(CNC(=O)CCCC/C=C/C(C)C)ccc1O [capsaicin]
pro-inflammatory systemic IL-6 and TNF-α levels (IL-6 and TNF-α): reduce

CN1CCN(C2CCN(C(=O)Nc3cc(Oc4ccc(NC(=O)C5(C(=O)Nc6ccc(F)cc6)CC5)c(F)c4)ccn3)CC2)CC1 [compound 2, Golvatinib]
systemic TNF-α for CpG (TNF-α): ~0

O=c1cc(-c2cccc3c2Sc2ccccc2S3)oc(N2CCOCC2)c1 [compound 3]
systemic TNF-α for CpG (TNF-α): ~0

C=CCc1ccc(O)c(-c2ccc(O)c(CC=C)c2)c1 [honokiol]
pro-inflammatory systemic IL-6 and TNF-α levels (IL-6 and TNF-α): reduce
